# Read-outs that look alike come from different tables or passages of the source.
# What was measured:
# [1] = test system: human immunodeficiency virus-infected cell system; conditions: cited from earlier work
# Trypanosoma cruzi = conditions: cited from earlier work
# [2] = test system: phosphatidylcholine biosynthesis; conditions: cited from earlier work
# Pseudomonas aeruginosa = conditions: cited from earlier work
# [3] = biological target: T1, NAD-dependent alcohol dehydrogenase (Equus caballus, UniProt P00327); test: Inhibition of thiol enzymes by allicin; format: biochemical, horse; conditions: could be reactivated with thiol-containing compounds
# T1 construct: the NAD-dependent alcohol dehydrogenase from horse liver; from tissue; host or cells: horse liver
# alcohol dehydrogenases = test: Inhibition of thiol-containing enzymes of the amoeba parasite; format: biochemical
# Torulopsis glabrata = conditions: cited from earlier work
# Enterococcus faecium = conditions: Clinical MDR strain; cited from earlier work
# Streptococcus progenies = conditions: Sensitive; cited from earlier work
# S. fiexneri Y = conditions: rabbit; cited from earlier work
# Candida krusei = conditions: cited from earlier work
# [4] = test system: tissue-cultured mammalian cells
# [5] = test system: Acetate incorporation into fatty acids of isolated plastids; conditions: read-out: 50% inhibitory concentration (I 50 value); cited from earlier work
# Salmonella typhimurium = conditions: 0.2 to 0.5 mM; cited from earlier work
# thiol-protease papain = thiol-protease papain (Carica papaya, UniProt P00784); test: Inhibition of thiol enzymes by allicin; format: biochemical; conditions: could be reactivated with thiol-containing compounds
# Crithidia fasciculata = conditions: 30 μg/mL; cited from earlier work
# Acinetobacter baumanii = conditions: Clinical isolate; cited from earlier work
# [6] = biological target: NADP-dependent alcohol dehydrogenase (Thermoanaerobacter brockii, UniProt P14941); test: Inhibition of thiol enzymes by allicin; format: biochemical, Thermoanaerobium brockii; conditions: could be reactivated with thiol-containing compounds
# Giardia lamblia = conditions: 30 μg/mL; cited from earlier work
# Leptornonas colosoma = conditions: 30 μg/mL; cited from earlier work
# [7] = test system: Streptococcus β hemolyticus; conditions: Clinical MDR strain; cited from earlier work
# Candida = conditions: pure allicin; cited from earlier work
# [8] = test system: methicillin resistant Staphylococcus aureus, multidrug-resistant enterotoxicogenic Escherichia coli, Enterococcus, Shigella dysenteriae, S. flexneni and S. …; conditions: strains resistant to antibiotics; cited from earlier work
# [9] = test system: trophozoites of E. histolytica; conditions: 5 μg/mL, in vitro; cited from earlier work
# Staphylococcus aureus = conditions: cited from earlier work
# thioredoxin reductases = test: Inhibition of thiol-containing enzymes of the amoeba parasite; format: biochemical
# Candida tropicalis = conditions: cited from earlier work
# [10] = test system: mucoid strains of Pseudomonas aeruginosa, Streptococcus β hemnolyticus and Enterococcus faecium; conditions: cited from earlier work
# Candida albicans = conditions: cited from earlier work
# Escherichia coli = conditions: cited from earlier work
# [11] = test system: tissue-cultured mammalian cells; conditions: cited from earlier work
# Candida parapsilosis = conditions: cited from earlier work
# [12] = Candida neoformans; cited from earlier work
# Entainoeba histolytica = conditions: cited from earlier work
# [13] = biological target: acetyl-CoA-forming system, consisting of acetate kinase and phosphotransacetyl-CoA synthetase; conditions: cited from earlier work
# Klebsiella pneumoniae = conditions: Clinical isolate; cited from earlier work
# Proteus mirabilis = conditions: cited from earlier work
# cysteine proteinases = test: Inhibition of thiol-containing enzymes of the amoeba parasite; format: biochemical
# Leishmania major = conditions: 30 μg/mL; cited from earlier work
# [14] = alliin in itself; cited from earlier work
# Sequence of NADP-dependent alcohol dehydrogenase (P14941 whole entry): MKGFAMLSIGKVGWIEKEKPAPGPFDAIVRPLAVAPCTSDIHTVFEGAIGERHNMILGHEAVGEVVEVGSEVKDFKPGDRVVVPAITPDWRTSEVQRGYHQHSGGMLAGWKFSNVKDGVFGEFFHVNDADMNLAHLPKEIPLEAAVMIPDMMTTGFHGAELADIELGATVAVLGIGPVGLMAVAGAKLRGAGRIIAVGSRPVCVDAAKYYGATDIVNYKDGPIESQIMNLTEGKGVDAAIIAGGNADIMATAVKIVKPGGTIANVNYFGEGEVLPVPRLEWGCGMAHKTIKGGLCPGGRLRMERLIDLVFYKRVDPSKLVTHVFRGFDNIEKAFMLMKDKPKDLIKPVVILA
# Sequence of thiol-protease papain (P00784 134-345): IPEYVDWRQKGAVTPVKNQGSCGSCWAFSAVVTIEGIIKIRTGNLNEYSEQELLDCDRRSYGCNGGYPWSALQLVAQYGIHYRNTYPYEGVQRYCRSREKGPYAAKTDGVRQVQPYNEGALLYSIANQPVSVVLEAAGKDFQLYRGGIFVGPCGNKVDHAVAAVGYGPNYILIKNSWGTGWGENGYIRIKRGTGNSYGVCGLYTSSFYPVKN
# T1 sequence (P00327 2-375 limits assumed): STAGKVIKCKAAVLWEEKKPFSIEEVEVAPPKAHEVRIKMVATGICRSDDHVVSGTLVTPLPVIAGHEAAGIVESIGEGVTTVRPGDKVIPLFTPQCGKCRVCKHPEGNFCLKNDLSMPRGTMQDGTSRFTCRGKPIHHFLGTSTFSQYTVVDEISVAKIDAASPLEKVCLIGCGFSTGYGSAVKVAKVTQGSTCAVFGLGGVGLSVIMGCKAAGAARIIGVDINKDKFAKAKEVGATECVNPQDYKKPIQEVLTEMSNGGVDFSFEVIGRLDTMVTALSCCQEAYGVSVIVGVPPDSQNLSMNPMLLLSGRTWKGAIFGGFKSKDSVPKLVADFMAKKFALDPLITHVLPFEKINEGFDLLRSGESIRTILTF
molecule,measurement,setting,value
C=CCSSC=CC[S+]([O-])CC=C (mixture of isomers) [ajoene],integrin-dependent processes,[1],block the integrin-dependent processes
same,proliferation of Trypanosoma cruzi,Trypanosoma cruzi,inhibit the proliferation
same,phosphatidylcholine biosynthesis,[2],inhibit phosphatidylcholine biosynthesis
C=CCS[S+]([O-])CC=C (centres unmarked) [allicin],Allicin Concentration (LD50 ug/ml),Pseudomonas aeruginosa; MDR mucoid strain,>100 µg/mL
same,Allicin Concentration (LD50 ug/ml),Pseudomonas aeruginosa; Sensitive to cefprozil,15 µg/mL
same,inhibition of NAD-dependent alcohol dehydrogenase from horse liver,[3],irreversibly inhibited
same,concentration at which inhibition was observed,alcohol dehydrogenases,> 10 µg/mL
same,Allicin concentration MIC,Torulopsis glabrata; Clinical isolates,1.9 µg/mL
same,Allicin concentration MIC,Torulopsis glabrata,0.3 µg/mL
same,Allicin Concentration (LD50 ug/ml),Enterococcus faecium,>100 µg/mL
same,Allicin Concentration (LD50 ug/ml),Streptococcus progenies,3 µg/mL
same,antibacterial activity in vivo,S. fiexneri Y,in vivo antibacterial activity
same,Allicin concentration MIC,Candida krusei,0.3 µg/mL
same,concentration toxic to tissue-cultured mammalian cells,[4],> 100 µg/mL
same,IC50,[5],< 10 mM
same,effect on DNA and protein synthesis,Salmonella typhimurium,partially inhibit
same,effect on RNA synthesis,Salmonella typhimurium,immediate
same,inhibition of papain,thiol-protease papain,irreversibly inhibited
same,growth inhibition,Crithidia fasciculata,very efficiently inhibited
same,Allicin Concentration (LD50 ug/ml),Acinetobacter baumanii,15 µg/mL
same,inhibition of NADP-dependent alcohol dehydrogenase from Thermoanaerobium brockii,[6],irreversibly inhibited
same,growth inhibition,Giardia lamblia,very efficiently inhibited
same,growth inhibition,Leptornonas colosoma,very efficiently inhibited
same,Allicin Concentration (LD50 ug/ml),[7],>100 µg/mL
same,minimum inhibitory concentration,Candida,7 µg/mL
same,sensitivity to allicin,[8],sensitive
same,inhibition of virulence of trophozoites,[9],90%
same,Allicin Concentration (LD50 ug/ml),Staphylococcus aureus; Methicillin resistant,12 µg/mL
same,Allicin Concentration (LD50 ug/ml),Staphylococcus aureus; Sensitive,12 µg/mL
same,concentration at which inhibition was observed,thioredoxin reductases,> 10 µg/mL
same,Allicin concentration MIC,Candida tropicalis,0.3 µg/mL
same,sensitivity to allicin,[10],resistant
same,Allicin concentration MIC,Candida albicans; Clinical isolates,0.8 µg/mL
same,Allicin concentration MIC,Candida albicans,0.3 µg/mL
same,Allicin Concentration (LD50 ug/ml),Escherichia coli; Multidrug resistant MDR,15 µg/mL
same,Allicin Concentration (LD50 ug/ml),Escherichia coli; Sensitive to antibiotics,15 µg/mL
same,concentration at which some toxicity towards tissue-cultured mammalian cells was observed,[11],above 100 μM
same,Allicin concentration MIC,Candida parapsilosis,0.15 µg/mL
same,Allicin concentration MIC,[12],0.3 µg/mL
same,concentration that totally inhibits the growth of amoeba cultures,Entainoeba histolytica,30 µg/mL
same,kind of inhibition,[13],noncovalent and reversible
same,Allicin Concentration (LD50 ug/ml),Klebsiella pneumoniae,8 µg/mL
same,Allicin Concentration (LD50 ug/ml),"Proteus mirabilis; Prloteus marbles, Sensitive",15 µg/mL
same,Allicin Concentration (LD50 ug/ml),"Proteus mirabilis; Proteus mirabilis, Clinical MDR strain",>30 µg/mL
same,concentration at which inhibition was observed,cysteine proteinases,> 10 µg/mL
same,growth inhibition,Leishmania major,very efficiently inhibited
(+)-S-allyl-L-cysteine-sulfoxide [alliin],antimicrobial activity,[14],no antimicrobial activity

# From US20070154581A1, “Composition and method for enhancing or stimulating the immune system” (priority 2005, published 2007)
